# Assay results taken from the supplement of paper PMC10307832.
# How the values were obtained:
# Experiment in all cases: relative viability (nuclei count vs DMSO), 5 days (fraction); higher = more cells survive
# XMD13-2 + Olaparib = compound: C1CC1C(=O)NC2=NNC3=C2C=CC(=C3)C4=CC(=CC=C4)C(=O)NC5CC5 [XMD13-2] + O=C(c1cc(Cc2n[nH]c(=O)c3ccccc23)ccc1F)N1CCN(C(=O)C2CC2)CC1 [Olaparib] (partner 8 µM)
# Summary of the method: (§1)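 Cells from lung cancer lines were seeded into 1536-well plates and, one day later, dosed by pin tool. Treatments were either a single drug or a fixed dose of an anchor drug with five library-drug doses (not always all listed) in √10 steps. After 5 days, nuclei were stained in a one-step fixation (final 0.05% Triton X-100, 1% formaldehyde, 1 ug/ml Hoechst) and counted on 4× images, and relative viability is the treated-to-vehicle nuclei ratio, as the median of duplicate plates.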
# ALW-II-49-7 + Lapatinib = compound: Cc1ccc(C(=O)Nc2cccc(C(F)(F)F)c2)cc1Nc1cncc(C(N)=O)c1 [ALW-II-49-7] + CS(=O)(=O)CCNCc1ccc(-c2ccc3ncnc(Nc4ccc(OCc5cccc(F)c5)c(Cl)c4)c3c2)o1 [Lapatinib] (partner 2 µM)
# Summary of the method: as §1
# XMD13-2 + Lapatinib = compound: C1CC1C(=O)NC2=NNC3=C2C=CC(=C3)C4=CC(=CC=C4)C(=O)NC5CC5 [XMD13-2] + CS(=O)(=O)CCNCc1ccc(-c2ccc3ncnc(Nc4ccc(OCc5cccc(F)c5)c(Cl)c4)c3c2)o1 [Lapatinib] (partner 2 µM)
# Summary of the method: as §1
# Dasatinib + Phenformin = compound: Cc1nc(Nc2ncc(C(=O)Nc3c(C)cccc3Cl)s2)cc(N2CCN(CCO)CC2)n1 [Dasatinib] + N=C(N)NC(=N)NCCc1ccccc1 [Phenformin] (partner 250 µM)
# Summary of the method: as §1
Cell Line,relative viability (XMD13-2 + Olaparib; first compound 0.05 µM),relative viability (XMD13-2 + Olaparib; first compound 0.1581 µM),relative viability (XMD13-2 + Olaparib; first compound 0.5 µM),relative viability (XMD13-2 + Olaparib; first compound 1.581 µM),relative viability (XMD13-2 + Olaparib; first compound 5 µM),relative viability (ALW-II-49-7 + Lapatinib; first compound 0.08 µM),relative viability (ALW-II-49-7 + Lapatinib; first compound 0.253 µM),relative viability (ALW-II-49-7 + Lapatinib; first compound 0.8 µM),relative viability (ALW-II-49-7 + Lapatinib; first compound 2.53 µM),relative viability (ALW-II-49-7 + Lapatinib; first compound 8 µM),relative viability (XMD13-2 + Lapatinib; first compound 0.05 µM),relative viability (XMD13-2 + Lapatinib; first compound 0.1581 µM),relative viability (XMD13-2 + Lapatinib; first compound 0.5 µM),relative viability (XMD13-2 + Lapatinib; first compound 1.581 µM),relative viability (XMD13-2 + Lapatinib; first compound 5 µM),relative viability (Dasatinib + Phenformin; first compound 0.005 µM),relative viability (Dasatinib + Phenformin; first compound 0.01581 µM),relative viability (Dasatinib + Phenformin; first compound 0.05 µM),relative viability (Dasatinib + Phenformin; first compound 0.1581 µM),relative viability (Dasatinib + Phenformin; first compound 0.5 µM)
NCI-H1651,0.174,0.206,0.19,0.184,0.188,0.719,0.879,0.672,0.776,0.794,1.09,0.78,0.906,1.09,0.751,0.355,0.285,0.308,0.35,0.241
ABC-1,0.925,0.869,1.08,,0.688,1.31,1.07,1.1,0.311,0.999,1.42,1.29,1.12,1.2,1.23,0.22,0.256,0.245,0.221,0.238
NCI-H2126,0.922,0.863,0.894,0.821,0.929,0.603,0.826,0.765,0.737,0.752,0.728,0.767,0.792,0.706,0.765,0.56,0.521,0.471,0.39,0.285
RERF-LC-KJ,0.971,0.917,0.928,0.983,0.985,0.867,0.948,0.867,0.941,0.859,0.912,0.841,0.858,0.816,0.78,0.406,0.348,0.363,0.355,0.305
NCI-H1666,0.752,0.736,0.793,0.742,0.777,0.533,0.674,0.695,0.831,0.652,0.63,0.666,0.979,0.719,0.441,0.517,0.26,0.548,0.498,0.451
PC-14,0.299,0.259,0.266,0.271,0.467,0.286,0.303,0.308,0.331,0.292,0.38,0.324,0.39,0.337,0.345,0.618,0.681,0.553,0.339,0.152
NCI-H1915,0.273,0.253,0.287,0.254,0.269,0.949,1.01,0.914,0.848,0.644,1.07,1.01,1,1,0.94,0.339,0.313,0.266,0.17,0.164
NCI-H661,0.728,0.671,0.739,0.767,0.66,0.47,0.474,0.383,,0.483,0.423,0.555,0.578,0.519,0.386,0.266,0.222,0.249,0.226,0.243
SK-MES-1,0.906,0.646,0.804,0.73,0.761,0.481,0.458,0.477,0.487,0.474,0.578,0.461,0.519,0.477,0.514,0.721,0.681,0.669,0.361,0.171
NCI-H1944,0.454,0.402,0.408,0.55,0.414,0.82,0.915,0.843,0.889,0.623,1.01,0.726,0.95,1.06,0.746,0.185,0.149,0.15,0.154,0.123
HCC-78,0.895,0.781,0.812,0.667,0.733,0.779,0.957,0.993,0.878,0.623,1.2,0.775,0.782,0.616,0.521,0.436,0.581,0.581,0.465,0.245
PC-3 [JPC-3],1.16,1.12,1.12,,1.05,0.387,0.461,0.485,0.471,0.419,0.453,0.467,0.437,0.498,0.426,0.482,0.458,0.453,0.473,0.305
EKVX,0.984,0.871,0.907,,0.907,0.194,0.188,0.173,0.127,0.188,0.205,0.173,0.177,0.192,0.196,0.218,0.21,0.177,0.136,0.102
NCI-H460,0.546,0.493,0.412,0.526,0.566,0.834,0.701,1.03,0.936,0.528,1.23,0.925,1.27,0.908,0.0203,0.47,0.484,0.443,0.336,0.314
NCI-H2170,0.663,0.554,0.631,0.581,0.601,0.313,0.284,0.264,0.302,0.302,0.307,0.272,0.278,0.284,0.266,0.426,0.379,0.357,0.294,0.177
NCI-H727,0.679,0.711,0.683,0.74,0.647,0.984,1.08,0.872,0.965,0.871,0.836,0.844,1.06,1.01,0.949,0.399,0.461,0.375,0.262,0.235

Cell Line,relative viability (XMD13-2 + Olaparib; first compound 0.05 µM),relative viability (XMD13-2 + Olaparib; first compound 0.1581 µM),relative viability (XMD13-2 + Olaparib; first compound 0.5 µM),relative viability (XMD13-2 + Olaparib; first compound 1.581 µM),relative viability (XMD13-2 + Olaparib; first compound 5 µM),relative viability (ALW-II-49-7 + Lapatinib; first compound 0.08 µM),relative viability (ALW-II-49-7 + Lapatinib; first compound 0.253 µM),relative viability (ALW-II-49-7 + Lapatinib; first compound 0.8 µM),relative viability (ALW-II-49-7 + Lapatinib; first compound 2.53 µM),relative viability (ALW-II-49-7 + Lapatinib; first compound 8 µM),relative viability (XMD13-2 + Lapatinib; first compound 0.05 µM),relative viability (XMD13-2 + Lapatinib; first compound 0.1581 µM),relative viability (XMD13-2 + Lapatinib; first compound 0.5 µM),relative viability (XMD13-2 + Lapatinib; first compound 1.581 µM),relative viability (XMD13-2 + Lapatinib; first compound 5 µM),relative viability (Dasatinib + Phenformin; first compound 0.005 µM),relative viability (Dasatinib + Phenformin; first compound 0.01581 µM),relative viability (Dasatinib + Phenformin; first compound 0.05 µM),relative viability (Dasatinib + Phenformin; first compound 0.1581 µM),relative viability (Dasatinib + Phenformin; first compound 0.5 µM)
NCI-H838,0.865,0.749,0.817,0.774,0.699,0.941,0.887,0.797,1.04,0.853,1.17,1.14,1.13,1.03,0.959,0.481,0.387,0.302,0.204,0.176
NCI-H1792,0.628,0.385,0.428,0.383,0.573,0.673,0.881,0.943,0.98,0.774,1.1,0.873,0.951,0.777,1.06,0.198,0.394,0.415,0.135,0.0671
H3255,0.635,0.634,0.584,0.519,0.558,0.27,0.363,0.266,0.225,0.212,0.444,0.223,0.297,0.199,0.201,0.312,0.344,0.341,0.322,0.274
EPLC-272H,0.976,0.854,0.748,0.528,0.172,0.666,0.916,1.07,1.08,0.782,1.09,0.897,1.01,0.817,0.911,0.313,0.252,0.386,0.261,0.0761
NCI-H647,0.622,0.435,0.545,0.602,0.234,0.779,0.772,1.18,0.806,0.855,1.14,1.31,1.22,1.02,0.369,0.465,0.366,0.257,0.197,0.141
LXF-289,1.28,1.03,1.15,0.99,1.05,0.864,0.818,0.922,1.01,0.967,0.923,0.901,0.905,0.897,0.834,0.543,0.512,0.414,0.34,0.0987
NCI-H1650,0.78,0.903,0.809,0.795,0.827,0.955,0.846,0.854,1.04,0.753,0.865,0.674,0.809,0.677,0.227,0.401,0.302,0.319,0.217,0.178
NCI-H1755,0.878,0.892,0.94,0.91,0.84,0.904,1.04,1.04,1.04,0.608,1.08,1.09,1.07,1,1.09,0.477,0.46,0.423,0.352,0.218
HCC-15,0.706,0.66,0.785,0.669,0.661,0.811,0.818,0.793,0.815,0.764,0.983,0.761,0.918,0.801,0.519,0.482,0.475,0.462,0.287,0.269
EMC-BAC-2,0.575,0.526,0.499,0.465,0.439,0.829,0.812,0.888,0.937,0.814,1.03,0.866,0.92,0.879,0.532,0.476,0.326,0.429,0.224,0.172
NCI-H1734,0.769,0.628,0.616,0.594,0.523,1.07,1.07,1.05,1.04,0.898,1.28,0.995,0.735,0.935,0.85,0.314,0.328,0.288,0.249,0.235
NCI-H1395,0.48,0.493,0.46,0.477,0.504,0.869,1.21,1.05,0.967,0.929,1.56,0.997,1.08,0.908,0.945,0.398,0.435,0.369,0.305,0.304
HOP-62,0.307,0.697,0.391,,0.489,1.17,1.24,1.1,0.806,0.639,1.17,1.02,1.09,1.25,1.07,0.687,0.608,0.704,0.569,0.281
LK-2,0.831,0.911,0.807,0.642,0.668,1.01,0.778,0.919,0.567,0.825,0.977,0.912,1.12,1.03,0.743,0.464,0.23,0.257,0.166,0.163
SW 1573,0.66,0.479,0.497,0.395,0.287,1.14,1.21,1.1,1.2,1.15,1.13,1.2,1.28,1.06,1.1,0.417,0.326,0.288,0.217,0.18
SK-LU-1,0.499,0.444,0.514,0.444,0.422,0.738,0.984,0.774,,0.607,1.14,0.97,0.971,0.707,0.536,0.342,0.257,0.193,0.179,0.148
